In US12629370B2, “Treatment of prostate cancer” (Sumitomo Pharma Co., Ltd., priority 2016, dated 2026):
“And” between values parts separate entries of the source, which are not always exact repeats. Equal entries are not always repeated.

Key:
[1] = Example 6: plasma concentration of unchanged Compound 1 (LC-MS/MS); type: in vivo, human
Method: Subjects in Cohort 1 received a load dose of 320 mg and a maintenance dose of 80 mg; subjects in Cohort 2 received a load dose of 320 mg and a maintenance dose of 120 mg; subjects in Cohort 3 received a load dose of 320 mg and a maintenance dose of 160 mg; and subjects in Cohort 4 received a load dose of 360 mg and a maintenance dose of 120 mg.
In addition to the safety assessments, efficacy assessments were also performed according to the study schedule, and the Compound 1 formulation was administered until each subject met the discontinuation criteria.

serum LH = assay: Example 7: serum LH in healthy men; type: in vivo, human
Method: FSH, DHT, and insulin-like growth factor 1 (IGF-1; Parts 3 and 4 only) were measured in a subset of samples. Serum testosterone was assayed using a conventional immunoassay for screening (LLOQ=0.4 nmol/L). A validated LC/MS/MS method, with an LLOQ of 0.173 nmol/L and a ULOQ of 10.425 nmol/L, was used for all subsequent baseline (i.e., the subject's serum hormone levels prior to treatment commencing) and postdose measurements.

PSA [2] = assay: Example 8: PSA response; type: in vivo, human
Excerpt: Eligible men were aged ≥18 years with a histologically confirmed diagnosis of prostate adenocarcinoma, and were candidates for ADT for the management of hormone-sensitive prostate cancer with one of the following clinical disease states: advanced localized disease not suitable for primary surgical or radiation therapy; evidence of PSA biochemical or clinical relapse following primary surgery or radiation therapy of curative intent; or newly diagnosed metastatic disease that was asymptomatic and without visceral involvement. Additional inclusion criteria at screening included: eugonadal serum testosterone >150 ng/dl (5.2 nmol/L); serum PSA concentration >2 ng/ml (or, when applicable, >0.2 ng/ml following radical prostatectomy or >2 ng/mL above the post-radiotherapy nadir following radiotherapy); body mass index ≥18.0 at screening and/or baseline (i.e., the subject's BMI prior to treatment commencing); and Eastern Cooperative Oncology Group (ECOG) performance status of 0 or 1. Patients with advanced, localized MON1 or M1 disease with clinically significant symptoms or visceral involvement, who required immediate GnRH therapy, chemotherapy, or radiation therapy were not eligible for the trial.
PSA levels were measured at each visit.

LH = assay: Example 9: LH; type: in vivo, human
Method: Eligible male patients were aged ≥18 years with a histologically confirmed diagnosis of localized, intermediate-risk prostate cancer, for whom 6-month neoadjuvant and adjuvant androgen deprivation therapy (ADT) to external beam radiation therapy (EBRT) was indicated. The criteria for establishing intermediate-risk prostate cancer included the presence of one of the following, without any high-risk feature: T2b-T2c disease, Gleason score 7, or prostate-specific antigen (PSA) 10-20 ng/mL. […] Based on investigator discretion and clinical assessment of the patient's overall medical and disease status, participation was allowed for older patients with high-risk disease (e.g., based on Gleason score or tumor status) who were deemed likely to benefit from 6 months of neoadjuvant/adjuvant ADT.
Both treatment arms received treatment for 24 weeks. […] EBRT began no later than day 1, week 17.
(§1) Patients were evaluated every 4 weeks during the treatment period (including day 1, week 25), at end of treatment (defined as week 29), during follow-up (week 33), and at end of study (EOS).
(§2) Samples for testosterone, luteinizing hormone (LH), FSH, and PSA concentrations were taken at screening, on day 1 of the first week (additionally days 2 and 4 for testosterone and LH), and on day 1 of weeks 2, 3, 5, 9, 13, 17, 21, 25, 29, 33, and 37 thereafter.

PSA [3] = assay: Example 9: PSA; type: in vivo, human
Method: Eligible male patients were aged ≥18 years with a histologically confirmed diagnosis of localized, intermediate-risk prostate cancer, for whom 6-month neoadjuvant and adjuvant androgen deprivation therapy (ADT) to external beam radiation therapy (EBRT) was indicated. The criteria for establishing intermediate-risk prostate cancer included the presence of one of the following, without any high-risk feature: T2b-T2c disease, Gleason score 7, or prostate-specific antigen (PSA) 10-20 ng/mL. Additional inclusion criteria included: EBRT scheduled to begin ≥12 weeks after baseline visit; screening serum testosterone >150 ng/dL (5.2 nmol/L); screening PSA concentration >2 ng/ml; body mass index ≥18.0 at screening or baseline (i.e., the subject's BMI prior to treatment commencing); Eastern Cooperative Oncology Group performance status of 0 or 1 at screening. Based on investigator discretion and clinical assessment of the patient's overall medical and disease status, participation was allowed for older patients with high-risk disease (e.g., based on Gleason score or tumor status) who were deemed likely to benefit from 6 months of neoadjuvant/adjuvant ADT. Most patients had intermediate-risk disease. However, a few patients, based on Gleason score or tumor, node, and metastasis staging system, were technically of higher than intermediate risk.
Both treatment arms received treatment for 24 weeks. Patients remained on treatment for at least 12 weeks before the start of external beam radiation treatment (EBRT), which was initiated for most patients between Week 13, Day 1 and Week 15, Day 1. EBRT began no later than day 1, week 17.
as §1
as §2, with “thereafter. […] Suppression of FSH was less profound than that of LH, but consistent with the literature, and was greater than that observed with GnRH agonists.” for “thereafter.”

## CONC(=O)Nc1ccc(-c2sc3c(c2CN(C)C)c(=O)n(-c2ccc(OC)nn2)c(=O)n3Cc2c(F)cccc2F)cc1 [Compound 1, N-(4-(1-(2,6-difluorobenzyl)-5-((dimethylamino)methyl)-3-(6-methoxy-3-pyridazinyl)-2,4-dioxo-1,2,3,4-tetrahydrothieno[2,3-d]pyrimidin-6-yl)phenyl)-N′-methoxyurea]
[1]; Part A Day 1, load dose 320 mg, across cohorts
  median Tmax: 1.5 h
[1]; Part A Days 14 and 28, 80 to 160 mg QD
  mean Cmax, Ctrough and mean plasma AUC24 versus dose: generally increased proportionately with dose
[1]; Part A Days 14 and 28, maintenance 80 to 160 mg QD
  median Tmax: 0.5 to 2.0 h
[1]; male, human, plasma, oral, Part A Day 1, load dose 320 mg, across cohorts, read-out: median Tmax
  Tmax: 1 h
[1]; male, human, plasma, oral, Part A Day 28, across cohorts, read-out: mean plasma T1/2
  half-life: 66.5 to 78.1 h
Serum LH; Part 2, 80 mg, baseline 4.57 IU/L
  mean serum LH at end of 16 days: 0.33 IU/L
Serum LH; Part 2, 180 mg, baseline 3.90 IU/L
  mean serum LH at end of 16 days: 0.23 IU/L
PSA [2]; 80 mg QD
  Median time from first dose to PSA nadir: 16.1 Weeks
PSA [2]; 120 mg QD
  Median time from first dose to PSA nadir: 12.3 Weeks
PSA [2]; after 4 weeks of treatment
  patients with ≥50% serum PSA reduction: Eighty-three percent
  patients with ≥90% serum PSA reduction: Eight percent
PSA [2]; by Week 13 Day 1 visit
  average PSA level: less than 0.4 ng/ml
PSA [2]; by Week 21 Day 1 visit
  average PSA level: less than 0.2 ng/ml
PSA [2]; end of 24 weeks dosing
  PSA % responses in most patients: exceed 90%
PSA [2]; in vivo
  PSA response following initiation of treatment compared with leuprorelin: more rapid
LH; Baseline
  Median LH: 4.7 mlU/mL
LH; Week 24
  Median LH: 0.1 mlU/mL
LH; Week 25, Day 1
  mean LH level: 0.325 IU/L
LH; Week 28/EOT visit
  Median LH: 3.1 mlU/mL
LH; Week 32/follow-up
  Median LH: 8.3 mlU/mL
LH; Week 36/EOS
  Median LH: 10.7 mlU/mL
PSA [3]; Baseline
  Median PSA: 7.3 µg/L
PSA [3]; Week 24
  Median PSA: 0.07 µg/L
PSA [3]; Week 28/EOT visit
  Median PSA: 0.07 µg/L
PSA [3]; Week 32/follow-up
  Median PSA: 0.2 µg/L
PSA [3]; Week 36/EOS
  Median PSA: 0.2 µg/L
PSA [3]; by Week 13 Day 1 visit
  average PSA level: < 0.2 ng/mL
PSA [3]; by the end of 12 weeks
  patients achieving PSA values less than 0.2 ng/ml: 6 of 30
PSA [3]; end of 8 weeks of dosing, before radiation therapy
  PSA % responses in most patients: exceed 89%
FIG. 20
  CLr (L/h): 7.57 (13.4) L/h and 8.11 (12.7) L/h and 9.24 (10.0) L/h and 8.64 (10.8) L/h
  Fe (%): 2.95 (41.5) % and 2.05 (33.4) % and 1.46 (38.7) %
  t1/2(h): 20.8 (5.2) h and 21.3 (20.0) h and 21.7 (8.9) h
